Measurements from patent US20250026880A1, “POLY(DIALLYLDIMETHYLAMMONIUM) FLUORIDE - A NEW ANTI-CARIES AND REMINERALIZING AGENT” (The University of Hong Kong, priority 2023, published 2025).

Assay: Remineralizing properties on EDTA-etched dentin blocks soaked in simulated body fluid (SEM/EDX)
Conditions: 15 μL applied on dentin etched by 10% EDTA; soaked in simulated body fluid for 7 d; PDDAF 280,000 ppm, SDF 38%
Description: The volume of both solutions applied on dentin surface is 15 μL.
The remineralizing properties of 280,000 ppm cationic polymer fluoride solution was examined. […] Dentin blocks with the dimensions of 4 mm×4 mm×2 mm were prepared (FIGS. 8C-8D, 9C-9D).

Question: Which “minerals formed on re-mineralized dentin surface (EDX)” value does the source give for silver diamine fluoride [38% SDF] here?
Answer: formation of mineral calcium phosphate and silver chloride
